Assay results published in paper PMC10892041, “Vanadium Complexes with Thioanilide Derivatives of Amino Acids: Inhibition of Human Phosphatases and Specificity in Various Cell Models of Metabolic Disturbances” (Pharmaceuticals, 2024).

Legend:
[1] = target: T1, PTP1B (Homo sapiens, UniProt P18031); assay: Inhibition of human recombinant tyrosine phosphatase PTP1B (DiFMUP fluorescence); assay type: biochemical; conditions: 1 µM; control solvent only; SD did not exceed 6%
T1 construct: purchased Sigma-Aldrich
T1 sequence (P18031 1-435): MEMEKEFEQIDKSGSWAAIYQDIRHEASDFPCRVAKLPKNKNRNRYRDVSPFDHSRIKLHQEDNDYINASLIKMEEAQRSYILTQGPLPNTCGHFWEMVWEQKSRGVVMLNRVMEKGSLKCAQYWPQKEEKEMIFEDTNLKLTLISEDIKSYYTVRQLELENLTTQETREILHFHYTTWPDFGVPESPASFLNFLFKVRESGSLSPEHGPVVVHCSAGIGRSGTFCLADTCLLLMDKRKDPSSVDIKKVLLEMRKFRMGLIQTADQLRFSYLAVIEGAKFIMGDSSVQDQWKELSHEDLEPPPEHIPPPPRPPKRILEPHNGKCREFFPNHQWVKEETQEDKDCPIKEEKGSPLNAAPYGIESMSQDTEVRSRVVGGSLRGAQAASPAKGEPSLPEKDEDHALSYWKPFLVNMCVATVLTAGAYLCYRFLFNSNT
In short: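 Human recombinant PTP1B (final 50 ng/mL) in buffer of 25 mM MOPS, 50 mM NaCl, 1 mM DTT and 0.05% Tween-20 (pH 7.0) was dispensed onto test compound in black 384-well plates. After 10 min, DiFMUP was added to 0.1 mM. Plates were incubated 20 min at 23 °C and fluorescence read (ex 355, em 560 nm). Assays were run in triplicate, with inhibition relative to enzyme-plus-vehicle control and IC50 fitted in GraphPad Prism.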

[2] = target: T2, LAR (Homo sapiens, UniProt P10586); assay: Inhibition of human recombinant tyrosine phosphatase LAR (DiFMUP fluorescence); assay type: biochemical; conditions: 1 µM; control solvent only; SD did not exceed 6%
T2 sequence (P10586 1352-1607 limits assumed): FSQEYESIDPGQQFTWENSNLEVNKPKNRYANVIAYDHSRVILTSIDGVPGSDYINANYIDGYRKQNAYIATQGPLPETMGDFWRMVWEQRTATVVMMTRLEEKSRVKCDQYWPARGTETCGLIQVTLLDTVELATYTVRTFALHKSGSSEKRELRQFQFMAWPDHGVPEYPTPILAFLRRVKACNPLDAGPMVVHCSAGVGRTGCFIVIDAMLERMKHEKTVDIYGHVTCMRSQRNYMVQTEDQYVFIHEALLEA
In short: (§1)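 Human recombinant phosphatases (SHP1 400 ng/mL, SHP2 50 ng/mL, LAR 5 ng/mL final) were pre-incubated 10 min with compound in 25 mM MOPS pH 7.0, 50 mM NaCl, 1 mM DTT, 0.05% Tween-20. DiFMUP (0.1 mM final) was added for 20 min at 23 °C and fluorescence read at 355/560 nm. Screening used 1 µM compound (% inhibition vs vehicle); IC50 also reported.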

[3] = target: T3, SHP1 (Homo sapiens, UniProt P29350); assay: Inhibition of human recombinant tyrosine phosphatase SHP1 (DiFMUP fluorescence); assay type: biochemical; conditions: 1 µM; control solvent only; SD did not exceed 6%
T3 construct: purchased Sigma-Aldrich
In short: as §1

[4] = target: T4, SHP2 (Homo sapiens, UniProt Q06124); assay: Inhibition of human recombinant tyrosine phosphatase SHP2 (DiFMUP fluorescence); assay type: biochemical; conditions: 1 µM; control solvent only; SD did not exceed 6%
T4 construct: purchased Sigma-Aldrich
T4 sequence (Q06124 1-593): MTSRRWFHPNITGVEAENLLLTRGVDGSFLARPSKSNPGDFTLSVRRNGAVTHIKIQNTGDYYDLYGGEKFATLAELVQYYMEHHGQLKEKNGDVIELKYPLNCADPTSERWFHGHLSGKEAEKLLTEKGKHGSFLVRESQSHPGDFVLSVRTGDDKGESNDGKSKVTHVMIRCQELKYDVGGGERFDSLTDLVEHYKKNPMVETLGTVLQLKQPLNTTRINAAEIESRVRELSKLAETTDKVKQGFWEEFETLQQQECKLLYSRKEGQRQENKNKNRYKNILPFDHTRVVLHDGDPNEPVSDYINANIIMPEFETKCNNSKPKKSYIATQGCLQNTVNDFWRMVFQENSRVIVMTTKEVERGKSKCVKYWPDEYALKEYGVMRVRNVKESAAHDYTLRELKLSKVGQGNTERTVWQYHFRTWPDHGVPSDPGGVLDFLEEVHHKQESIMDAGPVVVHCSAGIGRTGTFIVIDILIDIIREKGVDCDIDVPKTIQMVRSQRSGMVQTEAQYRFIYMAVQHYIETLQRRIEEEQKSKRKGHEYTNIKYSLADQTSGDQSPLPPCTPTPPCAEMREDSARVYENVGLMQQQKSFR
In short: as §1

[5] = system: adipocytes 3T3-L1; design: method as in doi:10.1016/j.poly.2020.114589; conditions: 50 µM; previously published by the authors; cited from earlier work
[6] = system: hepatocytes HepG2; conditions: 1 mM
Description: Hepatocytes HepG2, myocytes C2C12 (after 8 days differentiation), and adipocytes 3T3-L1 (after 11 days of differentiation) were cultured and maintained as described in the section above but pleated on a ScintiPlate TC 96-well microplate coated with a solid-phase scintillator (PerkinElmer). Hepatocytes and myocytes were washed, and culture medium was changed for medium with 0.5% BSA instead of serum. After 24 h incubation, the tested complexes were added. After 2 h incubation at 37 °C in 5% CO2, the medium was changed to low-glucose medium (1000 mg/L), and the tested complexes were added again, with further incubation for 4 h being conducted. […] Wortmannin at a final concentration of 200 nM (Sigma-Aldrich ) was used as a negative control. After that, cells were washed three times with cold KRB, and cytochalasin B (10 mM final) was added for several wells as a ‘‘no uptake” control, which proceeded as shown below.
For cells proceeded as above, 2-deoxy-D-[U-14C]-glucose (250–350 mCi/mmol, NEC720A, PerkinElmer) solution in KRB with a total activity of 0.03 mCi was added to each well. […] The radioactivity of samples was measured in a scintillation counter, MicroBeta Trilux 1450 (PerkinElmer). Non-specific radioactivity was subtracted from each result (cpm). […] The final results were expressed as percent of the control that contained solvent only instead of the tested compound.

[7] = system: hepatocytes HepG2; assay: Inhibition of hepatic gluconeogenesis (glucose synthesis); conditions: known inhibitors of gluconeogenesis; concentration not given

T3 sequence (P29350 whole entry): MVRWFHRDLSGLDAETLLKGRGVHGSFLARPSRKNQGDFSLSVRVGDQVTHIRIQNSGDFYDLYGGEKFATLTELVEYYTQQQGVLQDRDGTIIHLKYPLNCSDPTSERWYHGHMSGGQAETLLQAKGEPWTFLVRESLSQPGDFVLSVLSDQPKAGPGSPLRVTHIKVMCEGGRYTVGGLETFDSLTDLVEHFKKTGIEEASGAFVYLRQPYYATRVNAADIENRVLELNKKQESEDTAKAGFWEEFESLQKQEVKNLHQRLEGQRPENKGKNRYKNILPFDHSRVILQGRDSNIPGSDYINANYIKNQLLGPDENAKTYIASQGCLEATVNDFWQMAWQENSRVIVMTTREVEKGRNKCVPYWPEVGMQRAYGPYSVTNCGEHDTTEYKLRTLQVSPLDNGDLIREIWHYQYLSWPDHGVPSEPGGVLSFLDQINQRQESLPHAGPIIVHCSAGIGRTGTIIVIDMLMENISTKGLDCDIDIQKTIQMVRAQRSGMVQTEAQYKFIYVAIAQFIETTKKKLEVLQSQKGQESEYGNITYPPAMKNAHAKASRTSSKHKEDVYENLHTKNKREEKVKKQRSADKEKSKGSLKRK

Compound	Inhibition of PTP1B, percentage of inhibition of the control [1] [%]	Inhibition of LAR, percentage of inhibition of the control [2] [%]	Inhibition of SHP1, percentage of inhibition of the control [3] [%]	Inhibition of SHP2, percentage of inhibition of the control [4] [%]	Transport of [14C]-deoxy-D-glucose into 3T3-L1 adipocytes, % of control [5]	Potentiation of [14C]-deoxy-D-glucose transport to hyperinsulinemia-induced insulin-resistant hepatocytes [6]	Inhibition of glucose synthesis by hepatocytes, experimental control compounds [7]
O=C(NN=Cc1cc(Br)ccc1[O][V]1[O]C(c2ccccc2O)=NN=Cc2cc(Br)ccc2[O]1)c1ccccc1O [VC029, [V(L7)(HL7)]]	31	25	62	68	statistically significant activity		
CN(C)C(=N)N=C(N)N [metformin]						did not potentiate	showed inhibition of glucose synthesis
